Reference: patent US20110009421A1, “COMPOUND HAVING 6-MEMBERED AROMATIC RING” (TAKEDA PHARMACEUTICAL COMPANY LIMITED, priority 2008, published 2011)
Structures can show the parent of a compound that is named as a salt.

biological target: T1, human GPR52 (Homo sapiens, UniProt Q9Y2T5); assay: Increased intracellular cAMP levels in human GPR52 expression CHO cells (AlphaScreen cAMP assay); format: cell-based; conditions: 1 μM test compound, 30 min at 37° C., human GPR52 expression CHO (dhfr−) cells; intracellular cAMP level, 100% = 1 μM 3-(6-(2-(3,4-dimethoxyphenyl)ethoxy)pyridin-2-yl)-N-(2-pyrrolidin-1-ylethyl)benzamide, 0% = DMSO
T1 construct: expressed in transfected cells; host or cells: CHO (dhfr-) cells
Protocol: Increased Intracellular cAMP Levels in Human GPR52 Expression CHO Cells
1×10^4 human GPR52 expression CHO (dhfr−) cells were incubated with 1 μM test compound for 30 min at 37° C. in 30 μL assay buffer (HBSS (containing Ca^2+ and Mg^2+), 0.5% BSA, 100 μM IBMX, 100 μM Ro 20-1724, 5 mM HEPES (pH 7.55)) using an OptiPlate-384 (by PerkinElmer). The intracellular cAMP level was then assayed with an EnVision (by PerkinElmer) according to the protocol of the AlphaScreen cAMP Assay Kit (by PerkinElmer). The GPR52 agonist activity was calculated, assuming the intracellular cAMP level to be 100% in the presence of 1 μM of 3-(6-(2-(3,4-dimethoxyphenyl)ethoxy)pyridin-2-yl)-N-(2-pyrrolidin-1-ylethyl)benzamide obtained in Reference Example 39 and assuming the intracellular cAMP level to be 0% when DMSO was added instead of test compound.

T1 sequence (Q9Y2T5 whole entry): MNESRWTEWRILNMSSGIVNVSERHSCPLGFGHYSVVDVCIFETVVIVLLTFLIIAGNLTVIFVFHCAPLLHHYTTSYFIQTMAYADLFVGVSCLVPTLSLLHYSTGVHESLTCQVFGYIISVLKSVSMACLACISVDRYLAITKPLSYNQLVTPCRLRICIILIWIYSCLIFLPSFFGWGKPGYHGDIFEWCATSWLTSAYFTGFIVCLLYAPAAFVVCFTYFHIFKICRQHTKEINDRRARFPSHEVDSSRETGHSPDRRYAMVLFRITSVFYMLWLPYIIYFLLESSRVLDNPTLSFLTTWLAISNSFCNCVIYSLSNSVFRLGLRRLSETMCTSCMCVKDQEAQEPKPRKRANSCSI

Row | SMILES | GPR52 agonist activity (%)
1 | COc1ccc(CCNc2nccc(-c3cccc(NC(=O)CCCN4CCCC4)c3)n2)cc1OC [Working Example 19] | 85
2 | O=C(NCCN1CCCC1)c1cccc(-c2ccnc(NCCc3cccc(C(F)(F)F)c3)n2)c1 [Working Example 146, N-(2-pyrrolidin-1-ylethyl)-3-[2-({2-[3-(trifluoromethyl)phenyl]ethyl}amino)pyrimidin-4-yl]benzamide] | 135
3 | COc1ccc(CCNc2nccc(-c3cccc(C(=O)NCCN4CCCC4)c3)n2)cc1OC [Working Example 141] | 113
4 | CC(C)(CO)NC(=O)c1cccc(-c2cccc(Oc3cc(Cl)cc(Cl)c3)n2)c1 [Working Example 91, 3-(6-(3,5-Dichlorophenoxy)pyridin-2-yl)-N-(2-hydroxy-1,1-dimethylethyl)benzamide] | 61
5 | O=C(NCCN1CCCC1)c1cccc(-c2ccnc(NCCc3cccc(F)c3)n2)c1 [Working Example 143] | 72
6 | COc1ccccc1CCNc1nccc(-c2cccc(C(=O)NCCN3CCCC3)c2)n1 [Working Example 138] | 104
7 | COc1ccc(CCOc2cccc(-c3cccc(C(=O)NCCc4ccncc4)c3)n2)cc1OC [Working Example 201] | 85
8 | C[C@H](CC#N)NC(=O)c1cccc(-c2cccc(Oc3cc(Cl)cc(Cl)c3)n2)c1 [Working Example 94, N-((1R)-2-Cyano-1-methylethyl)-3-(6-(3,5-dichlorophenoxy)pyridin-2-yl)benzamide] | 58
9 | O=C(Nc1nccs1)c1cccc(-c2cccc(OCCc3cccc(F)c3)n2)c1 [Working Example 61, 3-(6-(2-(3-Fluorophenyl)ethoxy)pyridin-2-yl)-N-1,3-thiazol-2-ylbenzamide] | 43
10 | COc1ccc(CCNc2nccc(-c3cccc(C(=O)N(C)CCCN(C)C)c3)n2)cc1OC [Working Example 37, 3-(2-(2-(3,4-Dimethoxyphenyl)ethylamino)pyrimidin-4-yl)-N-(3-dimethylaminopropyl)-N-methylbenzamide hydrochloride] | 92
11 | COc1ccc(CCOc2cncc(-c3cccc(C(=O)NCCN4CCCC4)c3)c2)cc1OC [Working Example 44, 3-(5-(2-(3,4-Dimethoxyphenyl)ethoxy)pyridin-3-yl)-N-(2-pyrrolidin-1-ylethyl)benzamide] | 68
12 | N#CCCNC(=O)c1cccc(-c2cccc(Oc3cncc(Cl)c3)n2)c1 [Working Example 134, 3-(6-((5-Chloropyridin-3-yl)oxy)pyridin-2-yl)-N-(2-cyanoethyl)benzamide] | 48
13 | COc1ccc(CCOc2cccc(-c3cccc(C(=O)NCCNc4ccccc4)c3)n2)cc1OC [Working Example 208] | 67
14 | O=C(NCCN1CCCC1)c1cccc(-c2cccc(Oc3ccc(Cl)c(Cl)c3)n2)c1 [Working Example 82, 3-(6-(3,4-Dichlorophenoxy)pyridin-2-yl)-N-(2-pyrrolidin-1-ylethyl)benzamide] | 64
15 | COc1ccc(CCOc2cccc(-c3cccc(C(=O)NC4CCOCC4)c3)n2)cc1OC [Working Example 41, 3-(6-(2-(3,4-Dimethoxyphenyl)ethoxy)pyridin-2-yl)-N-(tetrahydro-2H-pyran-4-yl)benzamide] | 56
16 | COc1ccc(CCOc2cccc(-c3cccc(NC(=O)NCCN(C)C)c3)n2)cc1OC [Working Example 53] | 113
17 | O=C(NCCN1CCCC1)c1cccc(-c2ccnc(NCCc3ccc(Cl)c(F)c3)n2)c1 [Working Example 165] | 68
18 | O=C(NCCO)c1cccc(-c2cccc(Sc3ccc(Cl)cc3Cl)n2)c1 [Working Example 101, 3-(6-((2,4-dichlorophenyl)thio)pyridin-2-yl)-N-(2-hydroxyethyl)benzamide] | 53
19 | O=C(NCCN1CCCC1)c1cccc(-c2ccnc(NCCc3cccs3)n2)c1 [Working Example 152] | 64
20 | COc1ccc(CCOc2cc(-c3cccc(C(=O)NCCN4CCCC4)c3)ccn2)cc1OC [Working Example 42, 3-(2-(2-(3,4-Dimethoxyphenyl)ethoxy)pyridin-4-yl)-N-(2-pyrrolidin-1-ylethyl)benzamide] | 71

Row | SMILES | GPR52 agonist activity (%)
21 | COc1ccc(CCNc2nccc(-c3cccc(NC(=O)CCN(C)C)c3)n2)cc1OC [Working Example 29, N-(3-(2-((2-(3,4-dimethoxyphenyl)ethyl)amino)pyrimidin-4-yl)phenyl)-N^3,N^3-dimethyl-β-alaninamide] | 85
22 | COc1ccc(CCNc2nccc(-n3ccc4cc(C(=O)NCCN(C)C)ccc43)n2)cc1OC [Working Example 102, 1-(2-((2-(3,4-Dimethoxyphenyl)ethyl)amino)pyrimidin-4-yl)-N-(2-(dimethylamino)ethyl)-1H-indole-5-carboxamide] | 89
23 | COc1ccc(CCNc2nccc(-c3cccc(NC(=O)CC4CCCN4)c3)n2)cc1OC (stereo not drawn) [Working Example 25, N-(3-(2-((2-(3,4-Dimethoxyphenyl)ethyl)amino)pyrimidin-4-yl)phenyl)-2-pyrrolidin-2-yl acetamide hydrochloride] | 71
24 | COc1cccc(CCOc2cccc(-c3cccc(C(=O)Nc4ccccn4)c3)n2)c1 [Working Example 76, 3-(6-(2-(3-Methoxyphenyl)ethoxy)pyridin-2-yl)-N-pyridin-2-ylbenzamide] | 52
25 | C[S+]([O-])CCNC(=O)c1cccc(-c2cccc(Oc3cc(Cl)cc(Cl)c3)n2)c1 (stereo not drawn) [Working Example 96, 3-(6-(3,5-dichlorophenoxy)pyridin-2-yl)-N-(2-(methylsulfinyl)ethyl)benzamide] | 66
26 | COc1cccc(CCOc2cccc(-c3cccc(C(=O)NCCO)c3)n2)c1 [Working Example 69, N-(2-hydroxyethyl)-3-(6-(2-(3-methoxyphenyl)ethoxy)pyridin-2-yl)benzamide] | 65
27 | COc1ccc(CCOc2cccc(-c3cccc(NC(=O)CC4NCCc5ccccc54)c3)n2)cc1OC (stereo not drawn) [Working Example 318] | 82
28 | O=C(NCCO)c1cccc(-c2cccc(Oc3cc(Cl)cc(Cl)c3)n2)c1 [Working Example 87, 3-(6-(3,5-dichlorophenoxy)pyridin-2-yl)-N-(2-hydroxyethyl)benzamide] | 79
29 | COc1ccc(CCOc2cccc(-c3cccc(NC(=O)[C@@H]4CSC(=O)N4)c3)n2)cc1OC [Working Example 245] | 58
30 | COc1ccc(CCNc2nccc(-c3cccc(NC(=O)CCCN4CCCCC4)c3)n2)cc1OC [Working Example 31, N-(3-(2-(2-(3,4-Dimethoxy-phenyl)ethylamino)pyrimidin-4-yl)phenyl)-4-(piperidin-1-yl)butanamide] | 98
31 | COc1ccc(CCOc2cccc(-c3cccc(C(=O)NCCN4CCCC4)c3)c2)cc1OC [Working Example 40, 3′-(2-(3,4-Dimethoxyphenyl)ethoxy)-N-(2-pyrrolidin-1-ylethyl)biphenyl-3-carboxamide] | 87
32 | COc1ccc(CCNc2nccc(-c3cccc(NC(=O)CC4CCCN4C)c3)n2)cc1OC (stereo not drawn) [Working Example 28, N-(3-(2-((2-(3,4-dimethoxyphenyl)ethyl)amino)pyrimidin-4-yl)phenyl)-2-(1-methylpyrrolidin-2-yl)acetamide hydrochloride] | 74
33 | COc1cccc(CCOc2cccc(-c3cccc(C(=O)Nc4ccc(F)nc4)c3)n2)c1 [Working Example 75, N-(6-Fluoropyridin-3-yl)-3-(6-(2-(3-methoxyphenyl)ethoxy)pyridin-2-yl)benzamide] | 60
34 | N#CCCNC(=O)c1cccc(-c2cccc(Oc3cc(Cl)cc(Cl)c3)n2)c1 [Working Example 121, N-(2-Cyanoethyl)-3-(6-(3,5-dichlorophenoxy)pyridin-2-yl)benzamide] | 51
35 | COc1cccc(C(=O)Nc2cccc(-c3ccnc(NCCc4ccc(OC)c(OC)c4)n3)c2)c1 [Working Example 12, N-(3-(2-(2-(3,4-dimethoxyphenyl)ethylamino)pyrimidin-4-yl)phenyl)-3-methoxybenzamide] | 47
36 | Cc1cccc(CCOc2cccc(-c3cccc(C(=O)NCCO)c3)n2)c1 [Working Example 59, N-(2-Hydroxyethyl)-3-(6-(2-(3-methylphenyl)ethoxy)pyridin-2-yl)benzamide] | 84
37 | CNC(=O)c1cccc(-c2cccc(OCCc3ccc(OC)c(OC)c3)n2)c1 [Working Example 167] | 68
38 | COc1ccc(CCNc2nccc(-c3cccc(NC(=O)C4CCNCC4)c3)n2)cc1OC [Working Example 22, N-(3-(2-((2-(3,4-dimethoxyphenyl)ethyl)amino)pyrimidin-4-yl)phenyl)piperidine-4-carboxamide hydrochloride] | 80
39 | COc1ccc(CCOc2cccc(-c3cccc(C(=O)NCCN4CCCC4)c3)n2)cc1OC [Working Example 39, 3-(6-(2-(3,4-dimethoxyphenyl)ethoxy)pyridin-2-yl)-N-(2-pyrrolidin-1-ylethyl)benzamide] | 106
